Laboratory results: patent publication US11884633B2, “Arylazole compound and pest control agent” (Nippon Soda Co., Ltd., priority 2015, dated 2024)

Legend:
[1] = tested on: Mythimna separata; test: Test Example 1: efficacy test on Mythimna separata (artificial diet); type: in vivo; conditions: 0.8 g artificial diet mixed with 1 μl emulsion (I) (5% active ingredient); second instar larvae; 25° C.; fifth day
Description: (§1) 5 parts of the compound of the present invention, 93.6 parts of dimethylformamide, and 1.4 parts of polyoxyethylene alkylaryl ether were mixed and dissolved to prepare an emulsion (I) with 5% the active ingredient.
(§2) The insecticidal rate and the control rate were calculated by the following Equation. Insecticidal rate (%)=(number of dead insects/number of test insects)×100 Control rate={1−(Nt)/(Nc)}×100
0.8 g of commercially available artificial diet (Insector LFS, manufactured by Nosan Corp.) and Emulsion (I) 1 μl were well mixed and 0.2 g per each treatment group was packed in a plastic test container (1.4 ml) to prepare test feed. Two Mythimna separata second instar larvae were inoculated into each treatment group and sealed with a plastic lid. The container was placed in a thermostatic chamber at 25° C., and the insecticidal rate and food intake were examined on the fifth day. The test was performed twice. Further, a test conducted under the same conditions except that the compound of the present invention was removed from the emulsion (I) was performed as a vehicle control group.

[2] = tested on: Aphis gossypii; test: Test Example 11: efficacy test on Aphis gossypii (rooting treatment test); type: in vivo; conditions: 8 ppm; hydroponic culture of cucumber seedlings (root treatment); 6 days
Description: as §1, §2
The cucumber seedlings raised in a small pot were drawn out from the small pot, the soil adhering to the root portion was washed off with tap water, and the root portion was dipped in tap water and hydroponically cultivated. Cucumber seedlings were inoculated with Aphis gossypii […]. Emulsion (I) was diluted with water to obtain a diluted solution having a concentration of the compound of the present invention of 8 ppm. The tap water was replaced with the diluent and the hydroponic culture with the diluent was continued in a thermostatic chamber at a temperature of 25° C. and a humidity of 60%. When 6 days passed from the start of hydroponic culture with the diluent, life and death determination on Aphis gossypii was performed and the insecticidal rate was calculated. The test was performed twice.

[3] = tested on: housefly; test: Test Example 12: efficacy test on housefly; type: in vivo; conditions: 100 ppm on cubic sugar; female adults; 25° C.; 24 hours
Description: as §2
The compound of the present invention was diluted with acetone and added dropwise to 1 g of cubic sugar such that the concentration was set to be 100 ppm. The cubic sugar was placed in a plastic cup, and ten housefly female adults were released and capped. After storage at 25° C. and 24 hours passing from releasing, life and death determination was performed and the insecticidal rate was calculated. The test was performed twice.

[4] = tested on: Plutella xylostella; test: Test Example 13: efficacy test on Plutella xylostella (soil immersion test); type: in vivo; conditions: 500 ppm, 10 ml soil irrigation of chingengsai seedlings; adults released after 7 days; counted 7 days after release
Description: as §1, §2
Nt: Number of parasites in spray treatment group
Nc: Number of parasites in untreated group
Emulsion (I) was diluted with water such that the concentration of the compound of the present invention was set to be 500 ppm to obtain a test solution. 10 ml of the test solution was irrigated to the stocker at chingengsai seedlings (seventh true leaf development stage) planted in a small pot and placed in a greenhouse at 25° C. for 7 days. Chingengsai seedlings were transferred into glass greenhouse and 300 adults of Plutella xylostella per 50 chingengsai were released in glass greenhouse. When 7 days passed after release, the number of surviving Plutella xylostella infested in Chingengsai seedlings was counted and the control rate was calculated. The test was performed twice.

[5] = tested on: Ornithodoros moubata; test: Test Example 16: feeding effect test on Ornithodoros moubata; type: in vivo; conditions: 10 ppm in defibrin blood of sheep; tritonymphs; 14 days after blood sucking
Description: as §2
A DMSO solution of the compound of the present invention was mixed with the defibrin blood of sheep to obtain a mixed solution of 10 ppm. 2 ml of this mixed solution was placed in a container and capped with a parafilm membrane. In addition, 20 tritonymphs of Ornithodoros moubata were released and allowed to suck the blood through a parafilm membrane for about 30 minutes. The nymphs were transferred to a storage container and incubated in a thermostatic chamber at a temperature of 28° C. and a humidity of 80%, and the life and death and developmental stage were observed 14 days after blood sucking. The test was performed twice.

[6] = tested on: Rhipicephalus microplus; test: Test Example 17: contact effect test on Rhipicephalus microplus; type: in vivo; conditions: 100 ppm test solution; larvae; 24 hours after treatment
Description: as §2
A DMSO solution of the compound of the present invention was diluted with water to obtain a test solution at 100 ppm. This drug solution was dropped into a container containing 20 larvae of Rhipicephalus microplus and incubated in a thermostatic chamber at a temperature of 28° C. and a humidity of 80%. The larvae's life and death were determined 24 hours after the drug treatment. The test was performed twice.

[7] = tested on: Lucilia cuprina larvae; test: Test Example 18: contact/feeding effect test on Lucilia cuprina larvae; type: in vivo; conditions: 1000 ppm in horse meat, 48 hours
Description: as §2
A DMSO solution of the compound of the present invention was mixed with horse meat to obtain a mixture of 1000 ppm. 20 Lucilia cuprina larvae were introduced into the test tube with the mixture. The mixture was incubated in a thermostatic chamber at a temperature of 28° C. and a humidity of 80%, and the larvae's life and death were determined 48 hours after the start of the test. The test was performed twice.

[8] = tested on: Aedes aegypti larvae; test: Test Example 19: contact/feeding effect test on Aedes aegypti larvae; type: in vivo; conditions: final concentration 10 ppm; first instar larvae; 48 hours
Description: as §2
A DMSO solution of the compound of the present invention was diluted with water to obtain a diluted solution of 100 ppm. 10 Aedes aegypti first instar larvae were placed in each well of a 96-well microtiter plate together with breeding water, 1/10 of 100 ppm diluted solution were added and tested at a final concentration of 10 ppm. The mixture was incubated in a thermostatic chamber at a temperature of 28° C. and a humidity of 80%, and the larvae's life and death were determined for 48 hours after the drug treatment. The test was performed twice.

In the case of CCS(=O)(=O)c1cc(C(F)(F)F)cnc1-n1ncc(C=C(Cl)C(F)(F)F)c1C (mixture of isomers) [10-2], the “feeding amount in comparison with the vehicle control group” value (shortened to “feeding amount in comparison”) [1] is reported as ≤ 10%.
For CCS(=O)(=O)c1cccnc1-n1ncc(C=C(Cl)C(F)(F)F)c1C (mixture of isomers) [10-3], the “feeding amount in comparison” value [1] was ≤ 10%.
For CCS(=O)(=O)c1ccc(-n2cncn2)nc1-n1ncc(C=C(Cl)C(F)(F)F)c1C (mixture of isomers) [10-4], the “feeding amount in comparison” value [1] was ≤ 10%.
With CCS(=O)(=O)c1cc(C(F)(F)F)ccc1-c1ncc(C=C(Cl)C(F)(F)F)n1C [1-1, 5-(2-Chloro-3,3,3-trifluoroprop-1-en-1-yl)-2-(2-(ethylsulfonyl)-4-(trifluoromethyl)phenyl)-1-methyl-1H-imidazole] the insecticidal rate [2] was ≥ 80%, the insecticidal rate [3] was ≥ 80% and the control rate [4] was ≥ 80%. For the same compound, the insecticidal rate [5] was ≥ 90%, the insecticidal rate [6] was ≥ 90% and the insecticidal rate [7] was ≥ 90%. The insecticidal rate [8] was ≥ 90%.
In the case of CCS(=O)(=O)c1cc(C(F)(F)F)ccc1-c1ncc(/C=C/C(F)(F)F)n1C [1-10], the “feeding amount in comparison” value [1] is reported as ≤ 10%.
In the case of CCS(=O)(=O)c1ccc(-n2cncn2)nc1-c1ncc(C=C(Cl)C(F)(F)C(F)(F)F)n1C [4-10], the “feeding amount in comparison” value [1] is reported as ≤ 10%.
With CCS(=O)(=O)c1ccc(-n2cncn2)nc1-n1ncc(C=C(Cl)C(F)(F)C(F)(F)F)c1C [10-5] the “feeding amount in comparison” value [1] was ≤ 10%.
In the case of CCSc1cccnc1-n1ncc(C=C(Cl)C(F)(F)C(F)(F)F)c1C [10-6], the “feeding amount in comparison” value [1] is reported as ≤ 10%.
With CCS(=O)(=O)c1cccnc1-n1ncc(C=C(Cl)C(F)(F)C(F)(F)F)c1C [10-7] the “feeding amount in comparison” value [1] was ≤ 10%.
With CCS(=O)(=O)c1ccc(-n2cnc(N)n2)nc1-n1ncc(C=C(Cl)C(F)(F)C(F)(F)F)c1C [10-10] the “feeding amount in comparison” value [1] was ≤ 10%.
With CCS(=O)(=O)c1ccc(-n2ncnc2N)nc1-n1ncc(C=C(Cl)C(F)(F)C(F)(F)F)c1C [10-11] the “feeding amount in comparison” value [1] was ≤ 10%.
CCS(=O)(=O)c1cc(C(F)(F)F)ccc1-n1ncc(C(=O)On2nnc3ccccc32)c1C [15-2] showed a melting point of 211 to 215 °C.
With CCSc1cc(C(F)(F)F)ccc1-c1ncc(C(=O)N2CC(F)(F)C(F)(F)C2)n1C [15-3] the melting point was 155 to 156 °C.
